{
  "source": "patent USRE30496E",
  "about": "“Tripeptide derivatives with central nervous system activity and preparation thereof” (Ayerst, McKenna & Harrison, Ltd., priority 1979, dated 1981)",
  "origin": "cited, not measured here",
  "key": {"[1]": {"tested_on": "monkeys", "details": "literature (Plotnikoff 1973)"}, "[2]": {"tested_on": "behavioral effects of (3,4-dihydroxyphenyl)-L-alanine (L-DOPA)", "details": "literature (Plotnikoff 1971; Friedman 1973)"}, "[3]": {"tested_on": "mice", "details": "literature (Plotnikoff 1973)"}, "[4]": {"tested_on": "effects of oxotremorine", "details": "literature (Plotnikoff 1972)"}, "[5]": {"details": "in vivo"}},
  "data": [
    {"substance": "H-L-prolyl-L-leucyl-glycinamide [H--Pro--Leu--Gly--NH2]", "values": [
      {"measurement": "reversal of the sedative effects of deserpidine", "setting": "[1]", "result": "reverses the sedative effects of deserpidine"},
      {"measurement": "potentiation of the behavioral effects of L-DOPA", "setting": "[2]", "result": "potentiates the behavioral effects"},
      {"measurement": "reversal of the sedative effects of deserpidine", "setting": "[3]", "result": "reverses the sedative effects of deserpidine"},
      {"measurement": "antagonism of the effects of oxotremorine", "setting": "[4]", "result": "antagonizes the effects of oxotremorine"},
      {"measurement": "first step in the inactivation", "setting": "[5]", "result": "proteolytic cleavage of the Pro-Leu bond"}
    ]}
  ]
}
